{
  "source": "paper PMC12775434",
  "about": "“Ultra-large virtual screening unveils potent agonists of the neuromodulatory orphan receptor GPR139” (Nature Communications, 2025)",
  "key": {"GPR139 (Gi3 activation)": {"target": "T1, GPR139 (Gi3 activation) (Homo sapiens, UniProt Q6DWJ6)", "T1 construct": "expressed in transfected cells; host or cells: HEK293A (transient, Lipofectamine 2000)", "T1 sequence (Q6DWJ6 1-353)": "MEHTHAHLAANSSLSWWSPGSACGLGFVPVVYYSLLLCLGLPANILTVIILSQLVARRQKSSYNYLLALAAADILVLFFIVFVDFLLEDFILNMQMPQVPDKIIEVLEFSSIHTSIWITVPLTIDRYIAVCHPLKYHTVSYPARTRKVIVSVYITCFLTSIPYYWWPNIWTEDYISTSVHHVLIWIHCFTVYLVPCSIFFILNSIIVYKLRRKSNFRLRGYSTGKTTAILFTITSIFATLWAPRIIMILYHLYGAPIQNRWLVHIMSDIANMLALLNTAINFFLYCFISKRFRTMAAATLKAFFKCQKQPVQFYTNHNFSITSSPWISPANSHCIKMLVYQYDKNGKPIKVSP", "assay": "BRET G protein activation (dissociation) assay, Gi3, HEK293A", "format": "cell-based", "conditions": "for G protein activation, Gi3: individual replicates", "procedure": "(§1) Primary screening and pharmacological characterization of compounds were performed using a CHO-K1 cell line that stably expresses human GPR139 (GPR139-CHOk1). The GPR139-CHOk1 cell line was kindly provided by H. Lundbeck A/S, Denmark[24]. GPR139-CHOk1 cells were grown in Ham’s F-12 Kaighn’s Modification Medium (ThermoFisher #21127030) supplemented with 10% dialyzed fetal bovine serum (US origin, ThermoFisher #26400044), 100 units/mL Penicillin-Streptomycin (ThermoFisher #15140122), and 1 mg/mL Geneticin (ThermoFisher #11811031). […] M1R-CHOk1 cells were purchased from The Missouri S&T cDNA Resource Center (#CEM100TN00). M1R-CHOk1 cells were grown in Ham’s F12 Medium (ThermoFisher #21765029) supplemented with 10% fetal bovine serum (Brazilian origin, ThermoFisher #10270106), 100 units/mL Penicillin-Streptomycin, and 0.25 mg/mL Geneticin. HEK293A cells transiently transfected with GPR139 were used for additional pharmacological assessment of signaling pathways activated by GPR139. HEK239A cells were generously provided by Dr. Asuka Inoue, Tohoku University, Japan. HEK293A cells were grown in Dulbecco’s Modified Eagle Medium (ThermoFisher #31966047) supplemented with 10% dialyzed fetal bovine serum and 100 units/mL Penicillin-Streptomycin. Cell lines were maintained at 37 °C in humidified incubator equilibrated with 5% CO2.\n(§2) The G protein dissociation assay developed by the lab of Kirill A. Martemyanov was used to measure the coupling of multiple G proteins by GPR139[57]. The assay was performed as described previously with minor modifications. HEK293A cells were reverse transfected 20–24 h prior to assay. 50,000 cells were plated in each well of white opaque tissue culture treated 96-well plates (PerkinElmer #6005680) previously coated with poly-D-lysine. Transfection solutions were prepared as described, and 10 µL transfection solution was mixed with 100 µL cells in each well. The cells in each well were transfected with 18.9 ng GPR139, 6.3 ng Venus 1-155 Gγ2, 6.3 ng Venus 159-239 Gβ1, 6.3 ng masGRK3ct-NanoLuc and 12.6 ng Gαi2, 12.6 ng Gαi3, 12.6 ng GαoA, 12.6 ng Gαq or 25.2 ng Gα12 using 375 nL Lipofectamine 2000 Transfection Reagent. Transfections with Gαq and Gα12 contained 6.3 ng DNA of the active subunit S1 of pertussis toxin (PTX-S1). Each transfection was normalized to 150 ng total DNA with pcDNA3.1. The BRET biosensors were a kind gift from the Martemyanov lab. On the day of the experiment the cells were washed with HEPES buffer. Test compounds were diluted in HEPES buffer from DMSO stocks (final DMSO concentration of maximally 0.3%). NanoLuc Luciferase substrate NanoGlo—furimazine (Promega #N1120) was diluted 1000-fold (final) in HEPES buffer. NanoGlo and test compounds were added, and measurements were performed after 10 s for Gi3, 15 s for Gi2 and GoA, 20 s for Gq, and 90 s for G12—the timepoint where maximal signal occurred with each G protein, ensuring proper determination of the potency for the G protein coupling. Simultaneous dual emission was measured at 535 nm and 475 nm on LUMIstar Omega Microplate Reader (BMG Labtech) at room temperature. The BRET ratio of 535 nm/475 nm (Venus/NanoLuc), reflecting the dissociation of the G protein heterotrimer, was used to determine the G protein activation. The basal BRET ratio obtained with buffer condition was subtracted from the absolute BRET ratio at a given test compound concentration, and the responses were normalized to the one obtained with 10 µM JNJ-63533054 for the activation of Gi2.\n(§3) Pharmacological data and statistical analyses were performed in GraphPad Prism v9–10 (Graphpad Software Inc., San Diego, CA), which are also specifically described in the figure and table legends. […]"}, "GPR139 (G12 activation)": {"target": "T2, GPR139 (G12 activation) (Homo sapiens, UniProt Q6DWJ6)", "T2 construct": "expressed in transfected cells; host or cells: HEK293A (transient, Lipofectamine 2000)", "T2 sequence (Q6DWJ6 1-353)": "T1 sequence (Q6DWJ6 1-353)", "assay": "BRET G protein activation (dissociation) assay, G12, HEK293A", "format": "cell-based", "conditions": "for G protein activation, G12: individual replicates", "procedure": "as §1, §2, §3"}, "[1]": {"conditions": "HEK293-A, normalized to JNJ-63533054 (JNJ(S))"}},
  "note": "Where “and” joins values, the source holds several entries; their conditions need not be identical. Equal values may be shown once.",
  "data": [
    {"smiles": "C[C@@H](NC(=O)CNC(=O)c1cccc(Cl)c1)c1ccccc1", "note": "[JNJ(R), reference compound]", "values": [
      {"measurement": "Emax", "setting": "GPR139 (Gi3 activation); [1]", "result": "35 ± 6", "unit": "%"},
      {"measurement": "EC50", "setting": "GPR139 (Gi3 activation); Supplementary Table 6, read-out: pEC50 Gi3 (converted)", "result": 3.98, "unit": "µM"},
      {"measurement": "G protein activation, Gi3", "setting": "GPR139 (Gi3 activation); log [compound] M -4.5", "result": "36 % of JNJ-63533054 at Gi2 and 21 % of JNJ-63533054 at Gi2 and 35 % of JNJ-63533054 at Gi2"},
      {"measurement": "G protein activation, Gi3", "setting": "GPR139 (Gi3 activation); log [compound] M -5.0", "result": "29 % of JNJ-63533054 at Gi2 and 16 % of JNJ-63533054 at Gi2 and 28 % of JNJ-63533054 at Gi2"},
      {"measurement": "G protein activation, Gi3", "setting": "GPR139 (Gi3 activation); log [compound] M -5.5", "result": "20 % of JNJ-63533054 at Gi2 and 7 % of JNJ-63533054 at Gi2 and 23 % of JNJ-63533054 at Gi2"},
      {"measurement": "G protein activation, Gi3", "setting": "GPR139 (Gi3 activation); log [compound] M -6.0", "result": "11 % of JNJ-63533054 at Gi2 (2×) and 4 % of JNJ-63533054 at Gi2"},
      {"measurement": "G protein activation, Gi3", "setting": "GPR139 (Gi3 activation); log [compound] M -6.5", "result": "5.48 % of JNJ-63533054 at Gi2 and -1.21 % of JNJ-63533054 at Gi2 and 3.19 % of JNJ-63533054 at Gi2"},
      {"measurement": "G protein activation, Gi3", "setting": "GPR139 (Gi3 activation); log [compound] M -7.0", "result": "3.32 % of JNJ-63533054 at Gi2 and -6 % of JNJ-63533054 at Gi2 and 6 % of JNJ-63533054 at Gi2"},
      {"measurement": "G protein activation, Gi3", "setting": "GPR139 (Gi3 activation); log [compound] M -7.5", "result": "3 % of JNJ-63533054 at Gi2 and -5 % of JNJ-63533054 at Gi2 and 7.51 % of JNJ-63533054 at Gi2"},
      {"measurement": "G protein activation, Gi3", "setting": "GPR139 (Gi3 activation); log [compound] M -8.0", "result": "-1 % of JNJ-63533054 at Gi2 and -3.25 % of JNJ-63533054 at Gi2 and 5 % of JNJ-63533054 at Gi2"},
      {"measurement": "Emax", "setting": "GPR139 (G12 activation); [1]", "result": "48 ± 3", "unit": "%"},
      {"measurement": "EC50", "setting": "GPR139 (G12 activation); Supplementary Table 6, read-out: pEC50 G12 (converted)", "result": 3.98, "unit": "µM"},
      {"measurement": "G protein activation, G12", "setting": "GPR139 (G12 activation); log [compound] M -4.5", "result": "45 % of JNJ-63533054 at Gi2 and 42 % of JNJ-63533054 at Gi2 and 41 % of JNJ-63533054 at Gi2"},
      {"measurement": "G protein activation, G12", "setting": "GPR139 (G12 activation); log [compound] M -5.0", "result": "37 % of JNJ-63533054 at Gi2 and 34 % of JNJ-63533054 at Gi2 and 33 % of JNJ-63533054 at Gi2"},
      {"measurement": "G protein activation, G12", "setting": "GPR139 (G12 activation); log [compound] M -5.5", "result": "24 % of JNJ-63533054 at Gi2 (2×) and 19 % of JNJ-63533054 at Gi2"},
      {"measurement": "G protein activation, G12", "setting": "GPR139 (G12 activation); log [compound] M -6.0", "result": "13 % of JNJ-63533054 at Gi2 and 11 % of JNJ-63533054 at Gi2 and 9 % of JNJ-63533054 at Gi2"},
      {"measurement": "G protein activation, G12", "setting": "GPR139 (G12 activation); log [compound] M -6.5", "result": "7 % of JNJ-63533054 at Gi2 and 5 % of JNJ-63533054 at Gi2 and 2.85 % of JNJ-63533054 at Gi2"},
      {"measurement": "G protein activation, G12", "setting": "GPR139 (G12 activation); log [compound] M -7.0", "result": "1.33 % of JNJ-63533054 at Gi2 and 4 % of JNJ-63533054 at Gi2 and 0.154 % of JNJ-63533054 at Gi2"},
      {"measurement": "G protein activation, G12", "setting": "GPR139 (G12 activation); log [compound] M -7.5", "result": "0.474 % of JNJ-63533054 at Gi2 and 6 % of JNJ-63533054 at Gi2 and 1.7 % of JNJ-63533054 at Gi2"},
      {"measurement": "G protein activation, G12", "setting": "GPR139 (G12 activation); log [compound] M -8.0", "result": "-0.892 % of JNJ-63533054 at Gi2 and 6 % of JNJ-63533054 at Gi2 and 2.38 % of JNJ-63533054 at Gi2"}
    ]}
  ]
}
